Results published in patent US7868013B2, “Cycloalkyl substituted pyrimidinediamine compounds and their uses” (Rigel Pharmaceuticals, Inc., priority 2004, dated 2011).
Counter-ions that a name gives are not always drawn. Like-named read-outs stand apart in the source and are kept apart here.

Tests used:
[1] = test system: HL160 (promyeloblast promyelocytic leukemia); assay: In vitro antiproliferation assay, HL160 cells; assay type: cell-based
Experimental: (§1) Certain compounds were tested against other cell types for their ability to inhibit proliferation in standard antiproliferation assays.

[2] = test system: SW620 (colorectal adenocarcinoma); assay: In vitro antiproliferation assay, SW620 cells; assay type: cell-based
Experimental: as §1

[3] = test system: MiaPaCa-2 (pancreatic carcinoma); assay: In vitro antiproliferation assay, MiaPaCa-2 cells; assay type: cell-based; conditions: Miapaca2, read-out: In Vitro IC50
Experimental: (§2) Cis racemic Compound 15, (1S,2R) enantiomeric Compound 15a and […] enantiomeric Compound 15b were also tested against DU145 (prostate carcinoma), HCT116 (colorectal carcinoma) and MiaPaCa-2 (pancreatic carcinoma) cell lines.
as §1

[4] = test system: H1155 (non-small cell lung carcinoma); assay: In vitro antiproliferation assay, H1155 cells; assay type: cell-based; conditions: H1155
Experimental: as §1

[5] = test system: ASPC-1 (pancreatic adenocarcinoma); assay: In vitro antiproliferation assay, ASPC-1 cells; assay type: cell-based; conditions: ASPC1
Experimental: as §1

[6] = test system: HELA (cervical adenocarcinoma); assay: In vitro antiproliferation assay, HELA cells; assay type: cell-based
Experimental: as §1

[7] = test system: K562 (bone marrow chronic myelogenous leukemia); assay: In vitro antiproliferation assay, K562 cells; assay type: cell-based
Experimental: as §1

[8] = test system: DU145 (prostate carcinoma); assay: In vitro antiproliferation assay, DU145 cells; assay type: cell-based; conditions: DU145, read-out: In Vitro IC50
Experimental: as §2, §1

[9] = test system: PC3 (prostate adenocarcinoma); assay: In vitro antiproliferation assay, PC3 cells; assay type: cell-based
Experimental: as §1

[10] = test system: MOLT3 (T lymphoblast acute lymphoblastic leukemia); assay: In vitro antiproliferation assay, MOLT3 cells; assay type: cell-based
Experimental: as §1

[11] = test system: H7299; assay: In vitro antiproliferation assay, H7299 cells; assay type: cell-based
Experimental: as §1

[12] = test system: A549 (lung carcinoma); assay: In vitro antiproliferation assay, A549 cells (TABLE 1 6 point assay; TABLE 2); assay type: cell-based
Experimental: as §1

[13] = test system: COLO 205 (colorectal adenocarcinoma); assay: In vitro antiproliferation assay, COLO 205 cells; assay type: cell-based; conditions: Colo205
Experimental: as §1

[14] = test system: THP-1 (monocyte acute monocytic leukemia); assay: In vitro antiproliferation assay, THP-1 cells; assay type: cell-based
Experimental: as §1

[15] = test system: U2OS (bone osteosarcoma); assay: In vitro antiproliferation assay, U2OS cells; assay type: cell-based; conditions: U20S
Experimental: as §1

[16] = test system: L1210 (mouse lymphocytic leukemia); assay: In vitro antiproliferation assay, L1210 cells; assay type: cell-based
Experimental: as §1

[17] = test system: MOLT4 (T lymphoblast acute lymphoblastic leukemia); assay: In vitro antiproliferation assay, MOLT4 cells; assay type: cell-based
Experimental: as §1

[18] = test system: H1299 (non-small cell lung carcinoma); assay: In vitro antiproliferation assay, H1299 cells (TABLE 1 6 point assay; TABLE 2); assay type: cell-based; conditions: Homo sapiens
Experimental: as §1

[19] = test system: MiaPaCa tumors; assay: Xenograft regression model, MiaPaCa tumors; assay type: in vivo, SCID mice; conditions: 10 mg/kg/day oral or i.p., similar to taxol
Experimental: (§3) When palpable tumors appeared and were of a preselected volume (approx. 100 mm3 for treatment model; >300 mm3 for regression model), the mice were administered test compounds in the amounts and according to the dosing regimens specified in TABLE 3 (treatment protocol) and TABLE 4 (regression protocol), below.

[20] = test system: A549 tumors; assay: Xenograft treatment model, A549 tumors; assay type: in vivo, SCID mice; conditions: 5 days on/2 days off, 10 mg/kg qd, p>0.05
Experimental: as §3

[21] = test system: H460 (large cell lung carcinoma); assay: In vitro antiproliferation assay, H460 cells; assay type: cell-based; conditions: Homo sapiens, NCI-H460
Experimental: as §1

[22] = test system: Colo205 tumors; assay: Xenograft regression model, Colo205 tumors; assay type: in vivo, SCID mice; conditions: 10 mg/kg/day oral
Experimental: as §3

[23] = test system: Colo205 tumors; assay: Xenograft treatment model, Colo205 tumors; assay type: in vivo, SCID mice; conditions: daily and pulsed dosing regimens, all dosage levels tested
Experimental: as §3

Cc1cc(Nc2ncc(F)c(NC3C4C=CC(C4)C3C(N)=O)n2)ccc1N1CCN(C)CC1 (racemic) [Compound 60, 2-exo-3-exo racemic N4-(3-aminocarbonylbicyclo[2.2.1]hept-5-ene-2-yl)-5-fluoro-N2-[3-methyl-4-(4-methylpiperazin-1-yl)phenyl]-2,4-pyrimidinediamine]
IC50 [1]: ≤ 10 nM | IC50 [2]: ≤ 1000 nM | IC50 [3]: ≤ 10 nM | IC50 [4]: ≤ 10 nM | IC50 [5]: ≤ 20 nM | IC50 ([6]; HELA): ≤ 10 nM | IC50 [7]: ≤ 1000 nM | IC50 [8]: ≤ 20 nM | IC50 [9]: ≤ 20 nM | IC50 [10]: ≤ 10 nM | IC50 [11]: ≤ 20 nM | IC50 ([12]; A549, read-out: In Vitro IC50): ≤ 20 nM | IC50 [13]: ≤ 10 nM | IC50 [14]: ≤ 1000 nM | IC50 [15]: ≤ 20 nM | IC50 [16]: ≤ 1000 nM | IC50 [17]: ≤ 10 nM

Cc1cc(Nc2ncc(F)c(N[C@H]3[C@@H](C(N)=O)[C@@H]4C=C[C@H]3C4)n2)ccc1N1CCN(C)CC1 [compound 234, (1R,2R,3S,4S)—N4-(3-Aminocarbonylbicyclo[2.2.1]hept-5-en-2-yl)-5-fluoro-N2-[3-methyl-4-(4-methylpiperazin-1-yl)phenyl]-2,4-pyrimidinediamine Hydrogen Chloride Salt]
IC50 ([3]; Homo sapiens, MIA PaCa-2): ≤ 10 nM | IC50 ([18]; NCI-H1299, 6 point assay, H1299 cells, read-out: IC50, H1299 cells): 100 to 1000 nM | IC50 ([18]; NCI-H1299, H1299, read-out: In Vitro IC50): ≤ 1000 nM | Reduction in tumor growth rate [19]: Significant reductions in tumor growth rate | Reduction in mean tumor volume [20]: ~40% | IC50 ([6]; Homo sapiens, HeLa): ≤ 10 nM | IC50 ([8]; Homo sapiens, DU-145): ≤ 1000 nM | IC50 [21]: ≤ 10 nM | IC50 [11]: ≤ 1000 nM | IC50 ([12]; Homo sapiens, A549, 6 point assay, A549 cells, read-out: IC50, A549 cells): ≤ 100 nM | IC50 ([12]; Homo sapiens, A549, A549, read-out: In Vitro IC50): ≤ 10 nM | IC50 ([13]; Homo sapiens, COLO 205): ≤ 10 nM | Reduction in tumor growth rate [22]: Significant reductions in tumor growth rate | Reduction in tumor growth rate as compared to a vehicle control [23]: significant (p<0.050) reductions in tumor growth rate
